Assay results as given in US20230210807A1, “USE OF BENZOATE COMPOUND IN TREATMENT OF SARS-COV-2 INFECTIONS” (ACADEMY OF MILITARY MEDICAL SCIENCES, priority 2020, published 2023).
Entries after “also recorded” stand apart in the source; their conditions may differ.

Experiments:
Vero-E6 cells = assay: Cytotoxicity test of drugs (CCK-8 kit); conditions: 48 hours; for Cell viability (% of vehicle control): Vero-E6 cells
MERS-CoV = conditions: in vitro, cited from earlier work
SARS-CoV-2 = assay: Reduction of viral nucleic acid load in SARS-CoV-2 infected Vero E6 cells (qRT-PCR of supernatant); assay type: cell-based, SARS-CoV-2 (nCoV-2019BetaCoV/Wuhan/WIV04/2019 strain); conditions: for Copy number of virus genome: Vero E6 cells, 100TCID50, 48 hours

## N=C(N)c1ccc2cc(OC(=O)c3ccc(N=C(N)N)cc3)ccc2c1 [Nafamostat, 6-amidino-2-naphthyl-4-guanidino benzoate]
Vero-E6 cells; 0.14 µM
  Cell viability (% of vehicle control): 103.25±2.53 % of vehicle control
Vero-E6 cells; 0.41 µM
  Cell viability (% of vehicle control): 106.14±1.77 % of vehicle control
Vero-E6 cells; 1.23 µM
  Cell viability (% of vehicle control): 95.85±2.57 % of vehicle control
Vero-E6 cells; 3.70 µM
  Cell viability (% of vehicle control): 94.88±4.44 % of vehicle control
Vero-E6 cells; 11.11 µM
  Cell viability (% of vehicle control): 93.68±1.83 % of vehicle control
Vero-E6 cells; 33.33 µM
  Cell viability (% of vehicle control): 92.64±2.16 % of vehicle control
Vero-E6 cells; 100 µM
  Cell viability (% of vehicle control): 92.65±3.37 % of vehicle control
Vero-E6 cells; all test concentrations, Vero E6 cells
  Cytotoxicity (in words): no cytotoxicity was observed; also recorded: no toxic effect on the cells at all concentrations
MERS-CoV; versus Camostat
  IC50 relative to that of Camostat (times higher): 10 times
MERS-CoV; read-out: IC50 (MERS-CoV infection in vitro)
  IC50: 100 nM
SARS-CoV-2; 0.14 µM
  Copy number of virus genome: 1169068894.5±28678551.13
SARS-CoV-2; 0.41 µM
  Copy number of virus genome: 2051893138.5±1115069812.46
SARS-CoV-2; 1.23 µM
  Copy number of virus genome: 2805092897.49±419609425.32
SARS-CoV-2; 3.70 µM
  Copy number of virus genome: 3601892897.5±680084251.56
SARS-CoV-2; 11.11 µM
  Copy number of virus genome: 2116737884±785155013.49
SARS-CoV-2; 33.33 µM
  Copy number of virus genome: 1015568394.5±70116949.22
SARS-CoV-2; 100 µM, copies per milliliter per method
  Copy number of virus genome: 395904281±285024470.56
SARS-CoV-2; 48 hours after infection by SARS-CoV-2, Vero E6 cells, FIG. 1(a)
  Viral RNA load in the cells (in words): can reduce the viral RNA load
SARS-CoV-2; concentrations of 100 µM, 33 µM, 11.1 µM and 3.7 µM
  Inhibition of replication of SARS-CoV-2 virus genome in the infected supernatant (in words): could effectively inhibit the replication of SARS-CoV-2 virus genome
